Assay results: patent publication US20230398205A1, “SARS-COV-2 IMMU[…] CONSTRUCTS AND USES THEREOF” (TScan Therapeutics, Inc., priority 2020, published 2023)
Like-named read-outs stand apart in the source and are kept apart here. Where no end group is shown, it is not given here.

Legend:
Format in all cases: cell-based, human
[1] = tested on: memory CD8+ T cells specific for A*02:01 epitopes; conditions: Allele A02
[2] = tested on: memory CD8 T cells from convalescent COVID-19 patients
[3] = tested on: naïve CD8 T cells isolated from healthy donors; conditions: 10 days of expansion; tetramer staining; FIG. 14, FIG. 15

LLYDANYFL [LLY]
% of Pts (Tetramer) [1]: 55.6%

NTCDGTTFTY [NTC]
% of Pts (Screen M+ 2SD) ([2]; Allele A01): 60%

LLLDRLNQL [LLL]
% of Pts (Screen M+ 2SD) ([2]; Allele A02): 33.3% | % of Pts (Tetramer) [1]: 22.2%

DTDFVNEFY [DTD]
% of Pts (Screen M+ 2SD) ([2]; Allele A01): 40%

YLQPRTFLL [YLQ]
expansion of peptide-specific T cells from the naïve T cell population [3]: induces an expansion of peptide-specific T cells
